Experiments:
[1] = system: mononuclear cells from normal bone marrow; assay type: cell-based, human
[2] = system: human leukemia cells; test: Leukemia cell morphology after overnight incubation; assay type: cell-based; conditions: overnight incubation (Fig. 4C)
[3] = system: OCI-AML3 cells; test: Cell death assay; assay type: cell-based, human; conditions: OCI-AML3, overnight at 37 °C, 40 μM or higher, AnnexinV-FITC/PI flow cytometry

effects on mononuclear cells from normal bone marrow [1]: no detectable effects
Substance: CGRRAGGSC-GG-D(KLAKLAK)2 (disulfide) [BMTP-11]
effect on leukemia cell morphology [2]: affected the morphology
cell death (fraction of cells) [3]: ~ 90%
